Results reported in patent US6548042B2, “Bis-phosphonate compounds” (priority 2000, dated 2003).
Like-named read-outs stand apart in the source and are kept apart here.

What was measured:
[1] = Biodistribution of i.v. administered radioiodinated compounds in balb/c mice; details: for Bone-seeking properties: mouse, in vivo; for Discomfort or toxicity after administration of samples: single bolus tail vein injection, 100 μl;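 as to all read-outs here: healthy mice given radioiodinated bisphosphonic acids, with randomly chosen groups of three animals per time point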
Protocol: Mice. Samples of 100 μl containing 50,100, 400, 140 or 45 KBq of 31a, 34a, 46a, 67a or 72a, respectively, were injected into the tail veins as single bolus injections. […] At 0.5 h, 2 h, 5 h and 24 h postinjection times the animals were sacrificed; except in the case of the phosphate phosphonate derivative 31 were the animals were sacrificed 0.25 h, 2 h, 5 h and 24 h postinjection. Randomly selected groups of three animals were used at each time point. The whole animals were weighed and dissected. The excised organs, i.e. femur, skull, blood, heart, lung, liver, kidney, spleen, stomach, large intestine and small intestine, were weighed separately prior to counting.
Radioactivity measurements of the labelled compounds were carried out with a liquid scintillation counter (Beckman LS 6500, Beckman Instruments, USA) or with a Capintec CRC-7R radioisotope calibrator (Capintec, USA). The radioactivity level of the excised organs was measured with an automated gamma counter (LKB Wallac 1282, Turku, Finland).

[2] = test system: OHS cells; details: 60 days; ^153Sm-EDTMP 800 MBq/kg, ^89Sr 20 MBq/kg, ifosfamide 150 mg/kg; cited from earlier work
[3] = test system: MT-1 cells; details: repeated treatments (days 7 and 14); cited from earlier work
[4] = Swiss Webster mice, 20-25 g, 47 h; cited from earlier work
[5] = Sprague-Dawley rats, 220 g, 24 h; cited from earlier work
[6] = balb/c mice, 19-22 g, cited from earlier work

O=P(O)(O)C(Cc1ccccc1)P(=O)(O)O [2h, phenylethylidenebisphosphonic acid]
Uptake in femur ([1]; 2 h postinjection (peak), i.v.): 21±4 % ID/g | Uptake in femur ([1]; 24 h postinjection, i.v.): 15±5 % ID/g

O=P(O)(O)C(Cc1cccc([125I])c1)P(=O)(O)O [34a, m-[^125I and ^131I]-iodophenylethylidene-1,1-bisphosphonic Acid]
Uptake in femur ([1]; 0.5 h (30 min) postinjection, i.v.): 18.8±0.51 % ID/g | Activity in blood ([1]; 0.5 h postinjection, i.v.): 2.22±0.31 % ID/g | Uptake in kidneys ([1]; 0.5 h postinjection, i.v.): 8.23±6.39 % ID/g | Uptake in skull ([1]; 0.5 h postinjection, i.v.): 10.28±2.58 % ID/g | Femur to soft tissue ratio ([1]; 24 h, soft tissue with highest uptake): > 14 | Uptake in femur ([1]; 24 h postinjection, i.v.): 15.25±4.89 % ID/g | Uptake in kidneys ([1]; 24 h postinjection, i.v.): 1.06±0.10 % ID/g | Uptake in skull ([1]; 24 h postinjection, i.v.): 7.13±2.73 % ID/g | Bone-seeking properties [1]: potent bone-seekers | Discomfort or toxicity after administration of samples [1]: No sign of discomfort or toxicity was observed

O=P(O)(O)C(NCCc1cccc([131I])c1)P(=O)(O)O [67a, N-(m-[^131I]-iodophenylethyl)aminomethylene-bisphosphonic acid]
Uptake in femur ([1]; 24 h postinjection, i.v.): 1.39±0.43 % ID/g | Uptake in liver ([1]; 24 h postinjection, i.v.): 5.57±0.79 % ID/g | Uptake in skull ([1]; 24 h postinjection, i.v.): 0.91±0.08 % ID/g | Uptake in spleen ([1]; 24 h postinjection, i.v.): 2.49±0.37 % ID/g | Bone-seeking properties [1]: lack bone seeking properties | Discomfort or toxicity after administration of samples [1]: No sign of discomfort or toxicity was observed

O=P(O)(O)C(CCc1cccc([131I])c1)P(=O)(O)O [72a, 3-(m-iodo-[^131I and ^125I]-phenyl)propylidene-1,1-bisphosphonic acid]
Uptake in femur ([1]; 24 h postinjection, i.v.): 8.84±0.97 % ID/g | Uptake in kidneys ([1]; 24 h postinjection, i.v.): 0.85±0.08 % ID/g | Uptake in liver ([1]; 24 h postinjection, i.v.): 0.35±0.06 % ID/g | Uptake in skull ([1]; 24 h postinjection, i.v.): 10.36±4.26 % ID/g | Bone-seeking properties [1]: potent bone-seekers | Discomfort or toxicity after administration of samples [1]: No sign of discomfort or toxicity was observed

[89Sr] [^89Sr]
Survival rate / disease-free rats [2]: 20% | Surviving / disease-free rats of rats treated [2]: 2 of 10

N.N.[Cl][Pt][Cl] [cisplatin]
Effect on the metastatic growth [3]: nor did they have any significant effect on the metastatic growth | Survival after repeated treatments [3]: have not improved survival

O=P(O)(O)C(O)(c1cccc(I)c1)P(=O)(O)O [compound 2]
Ratio between uptake in femur and stomach [4]: 1.7 (femur/stomach, Swiss Webster | Uptake in femur expressed as % gram dose per gram tissue [4]: 299 (Swiss Webster mice, 20-25 g, 47 h) % gram dose per gram tissue | Uptake in stomach [4]: 7.65 ± 0.02 % ID/g | Uptake in the thyroid [4]: 0.414 ± 0.147 % injected dose/organ

O=P(O)(O)C(c1ccc(O)c(I)c1)P(=O)(O)O [compound 3]
Ratio between uptake in femur and kidney [5]: 1.5 (femur/kidney, Sprague-Dawley | Uptake in femur expressed as % gram dose per gram tissue [5]: 438 (Sprague-Dawley rats, 220 g, 24 h) % gram dose per gram tissue | Uptake in the thyroid [5]: 3829 (% ID/g,

O=C(NCCC(O)(P(=O)(O)O)P(=O)(O)O)c1cccc(I)c1 [compound 4]
Uptake in femur expressed as % gram dose per gram tissue ([6]; 2 h): 702 (balb/c mice, 19-22 g, 2 h) % gram dose per gram tissue | Ratio between uptake in femur and spleen ([6]; 24 h): 3.2 (femur/spleen, balb/c mice, | Uptake in stomach ([6]; 24 h): 0.93 ± 0.95 % ID/g | Uptake in the thyroid ([6]; 24 h): 0.45 ± 0.36 % injected dose/organ

COc1cccc2c1C(=O)c1c(O)c3c(c(O)c1C2=O)C[C@@](O)(C(=O)CO)C[C@@H]3O[C@H]1C[C@H](N)[C@H](O)[C@H](C)O1 [doxorubicin]
Effect on the metastatic growth [3]: nor did they have any significant effect on the metastatic growth | Survival after repeated treatments [3]: have not improved survival

O=P1(NCCCl)OCCCN1CCCl (stereo not drawn) [ifosfamide]
Survival rate / disease-free rats [2]: 20% | Surviving / disease-free rats of rats treated [2]: 3 of 15

^153Sm-EDTMP
Survival rate / disease-free rats [2]: 62% | Surviving / disease-free rats of rats treated [2]: 8/13
